Values quoted from earlier work, collected in paper PMC3328449, “Inhibition of Diacylglycerol–Sensitive TRPC Channels by Synthetic and Natural Steroids” (PLoS ONE, 2012).

Legend:
[1] = test system: other TRPC channels; design: method as in PMID 19289841; settings: cited from earlier work
[2] = test system: TRPC3; design: method as in PMID 19289841; settings: read-out: half maximal inhibitory concentration (IC50), TRPC3; cited from earlier work

**Q.** Which “Effects on other TRPC channels” value [1] does the source give for `CCOC(=O)c1cnn(-c2ccc(NC(=O)C(Cl)=C(Cl)Cl)cc2)c1C(F)(F)F` [Pyr3] here?
**A.** without having effects

**Q.** What about the IC50 [2] of the same compound?
**A.** 700 nM
